According to PubChem BioAssay AID743372 (Vanderbilt Specialized Chemistry Center, 2014):

Target: D(4) dopamine receptor (Homo sapiens) (UniProt P21917)
Experiment: D4 dopamine receptor antagonists, confirmation, cell-based, human (AID 743372)
Conditions: cells expressing human D4 receptor, antagonist mode

| IC50 [µM] | SMILES |
| --- | --- |
| 0.1 | COc1ccc(CN2CCO[C@@H](CCc3ccccc3)C2)cc1 |
| 0.29 | Clc1ccc(CN2CCOC(CCc3ccccc3)C2)cc1 (stereo unspecified) |
| 0.39 | FC(F)(F)Oc1cccc(CN2CCOC(CCc3ccccc3)C2)c1 (stereo unspecified) |
| 1.14 | Fc1ccc(CN2CCOC(CCc3ccccc3)C2)cc1 (stereo unspecified) |
| 1.48 | c1ccc(CCC2CN(Cc3ccccc3)CCO2)cc1 (stereo unspecified) |
| 0.23 | FC(F)(F)Oc1ccc(CN2CCO[C@H](CCc3ccccc3)C2)cc1 |
| 0.17 | COc1ccc(CN2CCOC(CCc3ccccc3)C2)cc1 (stereo unspecified) |
| 0.16 | FC(F)(F)Oc1ccc(CN2CCOC(CCc3ccccc3)C2)cc1 (stereo unspecified) |
| 0.13 | Clc1ccc(CN2CCO[C@H](CCc3ccccc3)C2)cc1 |
| 3.88 | Fc1cccc(F)c1CN1CCOC(CCc2ccccc2)C1 (stereo unspecified) |
| 3.68 | Cc1ccccc1CN1CCOC(CCc2ccccc2)C1 (stereo unspecified) |
